Source: ChEMBL document CHEMBL1909046, “DrugMatrix in vitro pharmacology data”
Where a SMILES comes first, the peptide text is derived from it. Bridges are numbered along the chain shown (N, C = ends). [ ]: non-standard residue; d: D form. The star is where a group is joined. Ileψ(thiazoline)Cys = CC[C@H](C)[C@H](N)C1=N[C@H](C(=O)*)CS1; dOrn = NCCC[C@@H](N)C(=O)O

What was measured:
Melanocortin receptor 4 = Melanocortin receptor 4 (Homo sapiens, UniProt P32245); type: cell membranes, Membrane; details: hek293; further: in other assays of this panel Not Active means under 50% inhibition at 10 µM
Sequence of Melanocortin receptor 4 (P32245 whole entry): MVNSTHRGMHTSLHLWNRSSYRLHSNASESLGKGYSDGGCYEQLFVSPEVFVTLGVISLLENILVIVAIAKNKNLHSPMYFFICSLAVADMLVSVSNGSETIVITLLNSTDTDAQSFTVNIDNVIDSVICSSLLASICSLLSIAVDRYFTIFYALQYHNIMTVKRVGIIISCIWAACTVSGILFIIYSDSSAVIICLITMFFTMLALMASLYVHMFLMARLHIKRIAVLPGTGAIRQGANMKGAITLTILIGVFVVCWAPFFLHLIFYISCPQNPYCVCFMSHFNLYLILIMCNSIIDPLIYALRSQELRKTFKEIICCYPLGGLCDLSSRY

Estrogen receptor = target: T1, Estrogen receptor (Homo sapiens, UniProt P03372); details: sf9; further: in other assays of this panel Not Active means under 50% inhibition at 10 µM
T1 sequence (P03372 whole entry): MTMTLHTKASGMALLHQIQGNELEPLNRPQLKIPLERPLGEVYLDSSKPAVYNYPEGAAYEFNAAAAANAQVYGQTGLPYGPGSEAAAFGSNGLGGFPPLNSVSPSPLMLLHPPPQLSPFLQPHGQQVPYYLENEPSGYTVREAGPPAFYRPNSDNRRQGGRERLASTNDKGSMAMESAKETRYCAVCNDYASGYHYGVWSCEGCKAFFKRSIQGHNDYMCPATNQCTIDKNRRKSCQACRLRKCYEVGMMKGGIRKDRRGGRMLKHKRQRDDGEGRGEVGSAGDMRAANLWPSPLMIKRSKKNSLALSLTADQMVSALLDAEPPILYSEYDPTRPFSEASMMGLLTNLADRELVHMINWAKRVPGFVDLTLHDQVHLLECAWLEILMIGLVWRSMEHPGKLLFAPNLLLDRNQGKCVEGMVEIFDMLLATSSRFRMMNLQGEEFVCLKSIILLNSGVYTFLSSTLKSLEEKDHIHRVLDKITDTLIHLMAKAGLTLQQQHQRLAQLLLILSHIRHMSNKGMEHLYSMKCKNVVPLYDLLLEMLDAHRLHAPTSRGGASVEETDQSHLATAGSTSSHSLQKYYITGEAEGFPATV

[1] = DRUGMATRIX: Platelet-Derived Growth Factor (PDGF) radioligand binding (ligand: [125I] PDGF); type: cell-based; details: nih3t3; Not Active = under 50% inhibition at 10 µM
Substance-P receptor = Substance-P receptor (Homo sapiens, UniProt P25103); type: cell membranes, CHO, Membrane; details: cho; further: in other assays of this panel Not Active means under 50% inhibition at 10 µM
Sequence of Substance-P receptor (P25103 whole entry): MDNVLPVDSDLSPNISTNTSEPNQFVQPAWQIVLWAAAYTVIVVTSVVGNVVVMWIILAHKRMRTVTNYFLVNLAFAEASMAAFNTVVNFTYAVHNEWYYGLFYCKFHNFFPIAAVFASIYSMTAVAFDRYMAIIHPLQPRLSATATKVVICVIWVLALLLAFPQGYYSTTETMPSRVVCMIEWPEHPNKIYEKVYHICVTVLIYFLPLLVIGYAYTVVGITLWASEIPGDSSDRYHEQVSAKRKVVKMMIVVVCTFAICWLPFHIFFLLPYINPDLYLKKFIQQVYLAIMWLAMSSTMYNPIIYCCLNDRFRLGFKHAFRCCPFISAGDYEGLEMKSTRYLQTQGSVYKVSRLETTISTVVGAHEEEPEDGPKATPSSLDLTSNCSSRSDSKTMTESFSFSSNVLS

[2] = target: Aldo-keto reductase family 1 member B1 (Rattus norvegicus, UniProt P07943); type: tissue-based, Lens of camera-type eye;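 further: inhibition of aldose reductase enzyme activity, measured with DL-glyceraldehyde as the substrate; in other assays of this panel Not Active means under 50% inhibition at 10 µM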
[3] = DRUGMATRIX: Imidazoline I2, Central radioligand binding (ligand: [3H] Idazoxan); type: cell membranes, Rattus norvegicus, Wistar, Cerebral cortex, Membrane; details: Not Active = under 50% inhibition at 10 µM
[4] = target: 5-hydroxytryptamine receptor 1B (Rattus norvegicus, UniProt P28564); type: cell membranes, Wistar, Cerebral cortex, Membrane; further: in other assays of this panel Not Active means under 50% inhibition at 10 µM
Sequence of 5-hydroxytryptamine receptor 1B (P28564 whole entry): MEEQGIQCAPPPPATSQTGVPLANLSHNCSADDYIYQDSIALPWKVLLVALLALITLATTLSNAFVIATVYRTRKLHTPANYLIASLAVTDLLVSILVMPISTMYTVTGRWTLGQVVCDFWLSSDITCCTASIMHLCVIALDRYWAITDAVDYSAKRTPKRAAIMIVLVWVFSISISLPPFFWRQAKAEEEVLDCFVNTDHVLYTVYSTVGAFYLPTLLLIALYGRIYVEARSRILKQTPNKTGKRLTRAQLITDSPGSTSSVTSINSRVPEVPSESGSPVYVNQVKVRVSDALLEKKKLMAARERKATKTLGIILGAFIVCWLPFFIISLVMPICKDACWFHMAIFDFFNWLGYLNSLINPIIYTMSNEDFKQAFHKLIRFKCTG

D(3) dopamine receptor = D(3) dopamine receptor (Homo sapiens, UniProt P35462); experiment: DRUGMATRIX: Dopamine D3 radioligand binding (ligand: [3H] Spiperone); type: cell membranes, CHO, Membrane
Sequence of D(3) dopamine receptor (P35462 whole entry): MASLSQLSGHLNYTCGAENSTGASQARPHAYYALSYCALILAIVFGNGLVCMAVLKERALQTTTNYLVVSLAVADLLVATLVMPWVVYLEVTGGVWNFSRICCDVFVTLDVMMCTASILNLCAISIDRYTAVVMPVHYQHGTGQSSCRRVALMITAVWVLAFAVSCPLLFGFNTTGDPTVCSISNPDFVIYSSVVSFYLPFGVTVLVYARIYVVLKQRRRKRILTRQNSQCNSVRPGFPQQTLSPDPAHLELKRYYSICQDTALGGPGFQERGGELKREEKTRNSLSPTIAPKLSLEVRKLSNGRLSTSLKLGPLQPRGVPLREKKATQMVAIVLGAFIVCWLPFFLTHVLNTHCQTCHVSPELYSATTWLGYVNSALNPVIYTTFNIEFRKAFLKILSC

Histamine H2 receptor = Histamine H2 receptor (Homo sapiens, UniProt P25021); type: cell membranes, CHO-K1, Membrane; details: cho-k1; further: in other assays of this panel Not Active means under 50% inhibition at 10 µM
Sequence of Histamine H2 receptor (P25021 whole entry): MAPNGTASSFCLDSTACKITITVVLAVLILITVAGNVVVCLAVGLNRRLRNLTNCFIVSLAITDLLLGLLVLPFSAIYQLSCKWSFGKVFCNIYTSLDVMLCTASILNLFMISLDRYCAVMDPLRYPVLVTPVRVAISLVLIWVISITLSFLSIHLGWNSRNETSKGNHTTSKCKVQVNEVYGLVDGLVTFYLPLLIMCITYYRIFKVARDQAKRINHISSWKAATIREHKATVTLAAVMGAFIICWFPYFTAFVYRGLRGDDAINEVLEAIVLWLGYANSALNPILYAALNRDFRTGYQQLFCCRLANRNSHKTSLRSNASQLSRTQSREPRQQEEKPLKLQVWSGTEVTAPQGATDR

[5] = DRUGMATRIX: Phosphodiesterase PDE3 enzyme inhibition (substrate: [3H]cAMP + cAMP); type: tissue-based, Homo sapiens; details: platelet; Not Active = under 50% inhibition at 10 µM
[6] = target: T2, C-X-C chemokine receptor type 2 (Homo sapiens, UniProt P25025); type: cell membranes, Membrane; details: cho-k1; further: in other assays of this panel Not Active means under 50% inhibition at 10 µM
T2 sequence (P25025 whole entry): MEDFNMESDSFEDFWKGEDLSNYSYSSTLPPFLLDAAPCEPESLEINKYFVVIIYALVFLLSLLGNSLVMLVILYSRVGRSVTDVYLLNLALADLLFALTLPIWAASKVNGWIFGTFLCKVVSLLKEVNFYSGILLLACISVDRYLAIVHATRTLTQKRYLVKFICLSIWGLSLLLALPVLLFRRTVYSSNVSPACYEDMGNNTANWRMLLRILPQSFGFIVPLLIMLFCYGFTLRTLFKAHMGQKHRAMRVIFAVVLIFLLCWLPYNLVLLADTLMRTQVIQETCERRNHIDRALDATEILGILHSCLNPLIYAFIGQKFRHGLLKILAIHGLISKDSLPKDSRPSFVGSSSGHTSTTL

[7] = DRUGMATRIX: GABAA, Chloride Channel, TBOB radioligand binding (ligand: [3H] TBOB); type: cell membranes, Rattus norvegicus, Wistar, Cerebral cortex, Membrane; details: Not Active = under 50% inhibition at 10 µM
[8] = DRUGMATRIX: Glutamate, NMDA, Phencyclidine radioligand binding (ligand: [3H] TCP); type: cell membranes, Rattus norvegicus, Wistar, Cerebral cortex, Membrane; details: Not Active = under 50% inhibition at 10 µM
[9] = target: T3, Neuropeptide Y receptor type 2 (Homo sapiens, UniProt P49146); type: cell membranes, Membrane; details: kan-ts; further: in other assays of this panel Not Active means under 50% inhibition at 10 µM
T3 sequence (P49146 whole entry): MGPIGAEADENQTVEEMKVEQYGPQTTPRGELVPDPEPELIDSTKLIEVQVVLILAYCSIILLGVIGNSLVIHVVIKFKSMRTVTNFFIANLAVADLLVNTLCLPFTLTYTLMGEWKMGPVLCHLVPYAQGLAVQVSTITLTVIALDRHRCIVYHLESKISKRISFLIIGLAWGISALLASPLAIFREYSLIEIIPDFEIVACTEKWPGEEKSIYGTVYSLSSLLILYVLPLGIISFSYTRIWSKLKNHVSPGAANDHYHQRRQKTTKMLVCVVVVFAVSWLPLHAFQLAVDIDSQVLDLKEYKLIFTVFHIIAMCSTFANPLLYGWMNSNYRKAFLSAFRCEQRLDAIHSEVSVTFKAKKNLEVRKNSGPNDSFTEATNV

Adenosine receptor A1 = target: T4, Adenosine receptor A1 (Homo sapiens, UniProt P30542); type: cell membranes, CHO, Membrane; details: cho
T4 sequence (P30542 whole entry): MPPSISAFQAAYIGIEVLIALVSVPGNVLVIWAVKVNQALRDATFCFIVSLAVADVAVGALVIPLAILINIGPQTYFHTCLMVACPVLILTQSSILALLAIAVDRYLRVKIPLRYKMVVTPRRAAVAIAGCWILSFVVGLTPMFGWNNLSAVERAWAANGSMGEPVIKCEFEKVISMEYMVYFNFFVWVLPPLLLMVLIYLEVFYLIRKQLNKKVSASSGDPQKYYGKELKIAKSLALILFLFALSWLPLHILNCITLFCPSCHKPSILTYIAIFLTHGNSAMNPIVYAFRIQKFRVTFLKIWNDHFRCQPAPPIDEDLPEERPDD

[10] = DRUGMATRIX: Glutamate, NMDA, Agonism radioligand binding (ligand: [3H] CGP-39653); type: cell membranes, Rattus norvegicus, Wistar, Cerebral cortex, Membrane; details: Not Active = under 50% inhibition at 10 µM
Cytochrome P450 3A4 = Cytochrome P450 3A4 (Homo sapiens, UniProt P08684); details: bti-tn-5b1-4; further: in other assays of this panel Not Active means under 50% inhibition at 10 µM
Sequence of Cytochrome P450 3A4 (P08684 whole entry): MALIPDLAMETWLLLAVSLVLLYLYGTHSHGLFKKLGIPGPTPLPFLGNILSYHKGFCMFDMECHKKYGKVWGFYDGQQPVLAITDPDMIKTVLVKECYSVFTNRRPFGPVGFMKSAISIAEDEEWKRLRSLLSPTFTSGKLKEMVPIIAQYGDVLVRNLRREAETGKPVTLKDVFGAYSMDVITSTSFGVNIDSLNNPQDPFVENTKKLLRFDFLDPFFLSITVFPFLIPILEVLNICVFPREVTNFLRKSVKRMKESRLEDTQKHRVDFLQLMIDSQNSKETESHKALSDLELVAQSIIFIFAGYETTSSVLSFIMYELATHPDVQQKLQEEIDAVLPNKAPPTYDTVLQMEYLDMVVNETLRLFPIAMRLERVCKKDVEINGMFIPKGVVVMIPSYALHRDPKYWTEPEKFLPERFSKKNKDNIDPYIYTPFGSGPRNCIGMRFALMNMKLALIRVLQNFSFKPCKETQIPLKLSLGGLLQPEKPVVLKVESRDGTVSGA

Compound | IC50 (Melanocortin receptor 4) | IC50 (Estrogen receptor) | IC50 [1] | Ki [1] | IC50 (Substance-P receptor) | IC50 [2] | IC50 [3] | Ki [3] | IC50 (Histamine H2 receptor) | IC50 [5] | Ki [5] | IC50 [6] | IC50 [7] | Ki [7] | IC50 [8] | Ki [8] | IC50 [9] | IC50 (Adenosine receptor A1) | IC50 [10] | Ki [10] | other results
O=C1OCCN1/N=C/c1ccc([N+](=O)[O-])o1 [FURAZOLIDONE] | Not Active | Not Active | Not Active | Not Active | Not Active | Not Active | Not Active | Not Active | Not Active | Not Active | Not Active | Not Active | Not Active | Not Active | Not Active | Not Active | Not Active | Not Active | Not Active | Not Active | IC50 [4]: Not Active; IC50 (D(3) dopamine receptor; cho): Not Active
CC[C@H](C)[C@H](N)C1=N[C@H](C(=O)N[C@@H](CC(C)C)C(=O)N[C@H](CCC(=O)O)C(=O)N[C@H](C(=O)N[C@H]2CCCCNC(=O)[C@H](CC(N)=O)NC(=O)[C@@H](CC(=O)O)NC(=O)[C@H](Cc3cnc[nH]3)NC(=O)[C@@H](Cc3ccccc3)NC(=O)[C@H]([C@@H](C)CC)NC(=O)[C@@H](CCCN)NC2=O)[C@@H](C)CC)CS1 [BACITRACIN] ({Ileψ(thiazoline)Cys}-L[dE]IK[dOrn]I[dF]H[dD]N; lactam 4-C) | Not Active | Not Active | Not Active | Not Active | Not Active | Not Active | Not Active | Not Active | Not Active | Not Active | Not Active | Not Active | Not Active | Not Active | Not Active | Not Active | Not Active | Not Active | Not Active | Not Active | IC50 (D(3) dopamine receptor; cho): Not Active; IC50 (Cytochrome P450 3A4): Not Active; Ki (Cytochrome P450 3A4): Not Active
COC(=O)[C@H](c1ccccc1Cl)N1CCc2sccc2C1 [CLOPIDOGREL] | Not Active | Not Active | Not Active | Not Active | Not Active | Not Active | Not Active | Not Active | Not Active | Not Active | Not Active | Not Active | Not Active | Not Active | Not Active | Not Active | Not Active | Not Active | Not Active | Not Active | IC50 [4]: Not Active; IC50 (D(3) dopamine receptor; cho): Not Active
CN1C[C@H](C(=O)N[C@]2(C)O[C@@]3(O)[C@@H]4CCCN4C(=O)[C@H](Cc4ccccc4)N3C2=O)C=C2c3cccc4[nH]cc(c34)C[C@H]21 [ERGOTAMINE] | Not Active | Not Active | Not Active | Not Active | Not Active | Not Active | – | – | Not Active | Not Active | Not Active | Not Active | Not Active | Not Active | Not Active | Not Active | Not Active | Not Active | Not Active | Not Active | IC50 ([3]; read-out: IC50): 3.65 nM; Ki ([3]; read-out: Ki): 2.43 nM; IC50 ([4]; read-out: IC50): 0.201 nM; Ki ([4]; read-out: Ki): 0.091 nM; IC50 (D(3) dopamine receptor; read-out: IC50): 4.31 nM; Ki (D(3) dopamine receptor; read-out: Ki): 1.46 nM
CCCCOC(=O)c1ccc(N)cc1 [BUTAMBEN] | Not Active | Not Active | Not Active | Not Active | Not Active | Not Active | Not Active | Not Active | Not Active | Not Active | Not Active | Not Active | Not Active | Not Active | Not Active | Not Active | Not Active | Not Active | Not Active | Not Active | IC50 [4]: Not Active; IC50 (D(3) dopamine receptor; cho): Not Active
O=C(O)c1cn(C2CC2)c2cc(N3CCNCC3)c(F)cc2c1=O [CIPROFLOXACIN] | Not Active | Not Active | Not Active | Not Active | Not Active | Not Active | Not Active | Not Active | Not Active | Not Active | Not Active | Not Active | Not Active | Not Active | Not Active | Not Active | Not Active | Not Active | Not Active | Not Active | IC50 [4]: Not Active; IC50 (D(3) dopamine receptor; cho): Not Active
NCC(=O)O [GLYCINE] | Not Active | Not Active | Not Active | Not Active | Not Active | Not Active | Not Active | Not Active | Not Active | Not Active | Not Active | Not Active | Not Active | Not Active | Not Active | Not Active | Not Active | Not Active | Not Active | Not Active | IC50 [4]: Not Active; IC50 (D(3) dopamine receptor; cho): Not Active
